# Experimental data: ChEMBL document CHEMBL6087420, “Synthesis and pharmacodynamic evaluation of 2-aminoindole derivatives against influenza A virus in vitro/vivo” (Eur J Med Chem, 2025)
# The source made the active and inactive calls. The rule behind the calls is not given here.
# Tests used:
# Influenza A virus [1] = assay: Anti-influenza activity against influenza A virus H1NI (A/Weiss/43) infected in dog MDCK cells assessed as virus inhibition rate incubated for 72 hrs by MTT assay; format: functional, organism-based
# Influenza A virus [2] = assay: Antiviral activity against influenza A virus H1NI (A/Weiss/43) virus infected in dog MDCK cells assessed as viral inhibition treated after 2 hrs of viral infection measured at 72 hrs incubation by MTT assay; format: functional
# Influenza A virus [3] = assay: Inhibition of influenza A virus infection induced apoptosis in MDCK cells infected with influenza virus assessed as necrotic cells at 25 uM incubated for 36 hrs by AnnexinV-FITC/PI staining based flow cytometry (reference value: 1.79%); format: functional; set-up: scale not given: the % may be the effect or the level left
# Influenza A virus [4] = assay: Inhibition of influenza A virus infection induced apoptosis in MDCK cells infected with influenza virus assessed as viable cells at 50 uM incubated for 36 hrs by AnnexinV-FITC/PI staining based flow cytometry (reference value: 66.9%); format: functional
# Influenza A virus [5] = assay: Inhibition of influenza A virus infection induced apoptosis in MDCK cells infected with influenza virus assessed as necrotic cells at 50 uM incubated for 36 hrs by AnnexinV-FITC/PI staining based flow cytometry (reference value: 1.79%); format: functional; set-up: scale not given: the % may be the effect or the level left
# Influenza A virus [6] = assay: In vivo antiviral activity against influenza A virus infected in BALB/c mouse assessed as reduction in weight loss at 25 to 100 mg/kg; format: functional, organism-based; conditions: dose 25-100 mg/kg
# Influenza A virus [7] = assay: In vivo antiviral activity against influenza A virus infected in BALB/c mouse assessed as reduction in lung index at 25 to 100 mg/kg; format: functional, organism-based; conditions: dose 25-100 mg/kg
# Influenza A virus [8] = assay: Antiviral activity against influenza A virus infected in human A549 cells assessed as inhibition of IRF7 expression by qRT-PCR analysis; format: functional, organism-based
# Influenza A virus [9] = assay: Antiviral activity against influenza A virus infected in human A549 cells assessed as inhibition of TNFalpha expression by qRT-PCR analysis; format: functional, organism-based
# Influenza A virus [10] = assay: In vivo antiviral activity against influenza A virus infected in BALB/c mouse assessed as reduction in NLRP-3 mRNA level in lung at 25 to 100 mg/kg measured after 6 dpi; format: functional, organism-based; conditions: dose 25-100 mg/kg
# Influenza A virus [11] = assay: In vivo antiviral activity against influenza A virus infected in BALB/c mouse assessed as reduction in IRF3 mRNA level in lung at 25 to 100 mg/kg measured after 6 dpi; format: functional, organism-based; conditions: dose 25-100 mg/kg
compound,measurement,setting,value
COc1ccc2c(c1)c(-c1ccccc1)c(NS(C)(=O)=O)n2S(=O)(=O)c1ccc(C)cc1,EC50,Influenza A virus [1],8.37 µM
same,inhibition (INH),Influenza A virus [2],87.37%
same,Activity,Influenza A virus [3],1.23%
same,Activity,Influenza A virus [4],85.5%
same,Activity,Influenza A virus [5],1.25%
same,Activity,Influenza A virus [6],inactive
same,Activity,Influenza A virus [7],Active
same,Activity,Influenza A virus [8],Active
same,Activity,Influenza A virus [9],Active
same,Activity,Influenza A virus [10],Active
same,Activity,Influenza A virus [11],Active
